# From patent US20070128217A1 (priority 2003, published 2007)
# Assays:
# [1] = tested on: antibodies in sera from SARS patients (sera 1a, 1b, 2, 6, 37, 62, London, SARS-yellow, SARS-green); assay type: binding, human; parameters: Binding of serum 6 to linear peptides of protein X1 of SARS-CoV Urbani / Binding of serum 37 to linear peptides of protein X1 of SARS-CoV Urbani / Binding of serum 6 to looped/cyclic peptide (PEPSCAN-ELISA) / Binding of serum 37 to looped/cyclic peptide (PEPSCAN-ELISA) / Binding of serum 37 to looped/cyclic peptides of protein X1 of SARS-CoV Urbani / Binding of serum 6 to linear peptides of protein X2 / Binding of serum 37 to linear peptides of protein X2 / Binding of serum 37 to looped/cyclic peptides of protein X2 of SARS-CoV Urbani / Binding of serum 6 to linear peptides of protein M of SARS-CoV Urbani / Binding of serum 37 to linear peptides of protein M of SARS-CoV Urbani / Binding of serum 6 to looped/cyclic peptides of protein M of SARS-CoV Urbani / Binding of serum 37 to looped/cyclic peptides of protein M of SARS-CoV Urbani / Binding of serum 6 to linear peptides of protein X3 of SARS-CoV Urbani / Binding of serum 37 to linear peptides of protein X3 of SARS-CoV Urbani / Binding of serum 37 to looped/cyclic peptides of protein X3 of SARS-CoV Urbani / Binding of serum 6 to linear peptides of protein X4 of SARS-CoV Urbani / Binding of serum 37 to linear peptides of protein X4 of SARS-CoV Urbani / Binding of serum 37 to looped/cyclic peptides of protein X4 of SARS-CoV Urbani / Binding of serum 6 to linear peptides of protein X5 of SARS-CoV Urbani / Binding of serum 37 to linear peptides of protein X5 of SARS-CoV Urbani / Binding of serum 37 to looped/cyclic peptides of protein X5 of SARS-CoV Urbani / Binding of serum 6 to linear peptides of protein N of SARS-CoV Urbani / Binding of serum 37 to linear peptides of protein N of SARS-CoV Urbani / Binding of serum 6 to linear peptide (PEPSCAN-ELISA) / Binding of serum 1a to looped/cyclic peptides of protein N of SARS-CoV Urbani / Binding of serum 1b to looped/cyclic peptides of protein N of SARS-CoV Urbani / Binding of serum 2 to looped/cyclic peptides of protein N of SARS-CoV Urbani / Binding of serum 6 to looped/cyclic peptides of protein N of SARS-CoV Urbani / Binding of serum 37 to looped/cyclic peptides of protein N of SARS-CoV Urbani / Binding of serum 62 to looped/cyclic peptides of protein N of SARS-CoV Urbani / Binding of serum London to looped/cyclic peptides of protein N of SARS-CoV Urbani / Binding of serum SARS-green to looped/cyclic peptides of protein N of SARS-CoV Urbani: unit not given here
# [2] = tested on: control sera (pooled serum of ten healthy LUMC hospital workers; commercial negative donor pooled serum from the Dutch bloodbank); assay type: binding, human; parameters: Binding of Control serum LUMC to linear peptides / Binding of Control serum Blood-bank to linear peptides / Binding of Control serum LUMC to looped peptides / Binding of Control Serum Blood-Bank to Looped peptides / Binding of Control serum LUMC to linear peptides of the protein M of SARS-CoV Urbani / Binding of Control serum Blood-bank to linear peptides of the protein M of SARS-CoV Urbani / Binding of Control serum LUMC to looped peptides of the protein M of SARS-CoV Urbani / Binding of Control Serum Blood-Bank to Looped peptides of the protein M of SARS-CoV Urbani: unit not given here
# [3] = tested on: rabbit serum obtained by immunizing a rabbit with the SARS-CoV strain Frankfurt 1; assay type: binding; parameters: Binding of a rabbit serum to linear peptides / Binding of a rabbit serum to looped peptides / Rabbit serum linear peptides / Rabbit serum looped peptides / Binding of a rabbit serum to linear peptides of protein N of SARS-CoV Urbani (Rabbit serum linear peptides) / Binding of a rabbit serum to looped/cyclic peptides of protein N of SARS-CoV Urbani (Rabbit serum looped peptides): unit not given here
Sequence,Binding of Control Serum Blood-Bank to Looped peptides [2],Binding of Control serum Blood-bank to linear peptides [2],Binding of Control serum LUMC to linear peptides [2],Binding of Control serum LUMC to looped peptides [2],Rabbit serum linear peptides [3],Rabbit serum looped peptides [3],Binding of serum 1a to linear peptides of protein X1 of SARS-CoV Urbani [1],Binding of serum 1a to looped/cyclic peptide (PEPSCAN-ELISA) [1],Binding of serum 1b to linear peptides of protein X1 of SARS-CoV Urbani [1],Binding of serum 1b to looped/cyclic peptide (PEPSCAN-ELISA) [1],Binding of serum 2 to linear peptides of protein X1 of SARS-CoV Urbani [1],Binding of serum 2 to looped/cyclic peptide (PEPSCAN-ELISA) [1],Binding of serum 6 to linear peptides of protein X1 of SARS-CoV Urbani [1],Binding of serum 37 to linear peptides of protein X1 of SARS-CoV Urbani [1],Binding of serum 62 to linear peptides of protein X1 of SARS-CoV Urbani [1],Binding of serum London to linear peptides of protein X1 of SARS-CoV Urbani [1],Binding of serum SARS-green to linear peptides of protein X1 of SARS-CoV Urbani [1],Binding of serum SARS-yellow to linear peptides of protein X1 of SARS-CoV Urbani [1],Binding of a rabbit serum to linear peptides [3],Binding of a rabbit serum to looped peptides [3],further results
PFHRWHTMVQTCTPN,0.5,0.7,0.5,0.4,0.5,0.4,,,,,,,,,,,,,,,Binding of serum 1a to linear peptides of protein X5 of SARS-CoV Urbani [1]: 0.7; Binding of serum 1a to looped/cyclic peptides of protein X5 of SARS-CoV Urbani [1]: 0.6; Binding of serum 1b to linear peptides of protein X5 of SARS-CoV Urbani [1]: 0.7; Binding of serum 1b to looped/cyclic peptides of protein X5 of SARS-CoV Urbani [1]: 0.5; Binding of serum 2 to linear peptides of protein X5 of SARS-CoV Urbani [1]: 0.7; Binding of serum 2 to looped/cyclic peptides of protein X5 of SARS-CoV Urbani [1]: 0.6; Binding of serum 6 to linear peptides of protein X5 of SARS-CoV Urbani [1]: 0.7; Binding of serum 6 to looped/cyclic peptides of protein X5 of SARS-CoV Urbani [1]: 0.3; Binding of serum 37 to linear peptides of protein X5 of SARS-CoV Urbani [1]: 0.7; Binding of serum 37 to looped/cyclic peptides of protein X5 of SARS-CoV Urbani [1]: 0.5; Binding of serum 62 to linear peptides of protein X5 of SARS-CoV Urbani [1]: 0.7; Binding of serum 62 to looped/cyclic peptides of protein X5 of SARS-CoV Urbani [1]: 0.3; Binding of serum London to linear peptides of protein X5 of SARS-CoV Urbani [1]: 0.7; Binding of serum London to looped/cyclic peptides of protein X5 of SARS-CoV Urbani [1]: 0.2; Binding of serum SARS-green to linear peptides of protein X5 of SARS-CoV Urbani [1]: 0.5; Binding of serum SARS-green to looped/cyclic peptides of protein X5 of SARS-CoV Urbani [1]: 0.3; Binding of serum SARS-yellow to linear peptides of protein X5 of SARS-CoV Urbani [1]: 0.4; Binding of serum SARS-yellow to looped/cyclic peptides of protein X5 of SARS-CoV Urbani [1]: 0.3
PKLFIRQEEVQQELY,0.6,0.7,0.5,0.7,0.4,0.4,,,,,,,,,,,,,,,Binding of serum 1a to linear peptides of protein X4 of SARS-CoV Urbani [1]: 0.7; Binding of serum 1a to looped/cyclic peptides of protein X4 of SARS-CoV Urbani [1]: 0.8; Binding of serum 1b to linear peptides of protein X4 of SARS-CoV Urbani [1]: 0.6; Binding of serum 1b to looped/cyclic peptides of protein X4 of SARS-CoV Urbani [1]: 0.6; Binding of serum 2 to linear peptides of protein X4 of SARS-CoV Urbani [1]: 0.4; Binding of serum 2 to looped/cyclic peptides of protein X4 of SARS-CoV Urbani [1]: 0.5; Binding of serum 6 to linear peptides of protein X4 of SARS-CoV Urbani [1]: 0.5; Binding of serum 6 to looped/cyclic peptides of protein X4 of SARS-CoV Urbani [1]: 0.5; Binding of serum 37 to linear peptides of protein X4 of SARS-CoV Urbani [1]: 0.8; Binding of serum 37 to looped/cyclic peptides of protein X4 of SARS-CoV Urbani [1]: 0.7; Binding of serum 62 to linear peptides of protein X4 of SARS-CoV Urbani [1]: 0.8; Binding of serum 62 to looped/cyclic peptides of protein X4 of SARS-CoV Urbani [1]: 0.6; Binding of serum London to linear peptides of protein X4 of SARS-CoV Urbani [1]: 0.8; Binding of serum London to looped/cyclic peptides of protein X4 of SARS-CoV Urbani [1]: 0.4; Binding of serum SARS-green to linear peptides of protein X4 of SARS-CoV Urbani [1]: 0.7; Binding of serum SARS-green to looped/cyclic peptides of protein X4 of SARS-CoV Urbani [1]: 0.5; Binding of serum SARS-yellow to linear peptides of protein X4 of SARS-CoV Urbani [1]: 0.8; Binding of serum SARS-yellow to looped/cyclic peptides of protein X4 of SARS-CoV Urbani [1]: 0.4
PLLYDANYFVCWHTH,0.6,0.7,0.6,0.6,,,0.9,0.6,0.8,0.6,0.6,0.4,0.6,0.8,0.8,0.4,0.4,0.5,0.1,0.5,Binding of serum 6 to looped/cyclic peptide (PEPSCAN-ELISA) [1]: 0.4; Binding of serum 37 to looped/cyclic peptide (PEPSCAN-ELISA) [1]: 0.7; Binding of serum 62 to looped/cyclic peptide (PEPSCAN-ELISA) [1]: 0.7; Binding of serum London to looped/cyclic peptide (PEPSCAN-ELISA) [1]: 0.2; Binding of serum SARS-green to looped/cyclic peptide (PEPSCAN-ELISA) [1]: 0.3; Binding of serum SARS-yellow to looped/cyclic peptide (PEPSCAN-ELISA) [1]: 0.4
PLQASLPFGWLVIGV,0.7,0.8,0.9,0.5,,,0.8,0.5,0.5,0.3,0.5,0.4,0.5,0.7,0.7,0.3,0.4,0.6,0.1,0.4,Binding of serum 6 to looped/cyclic peptide (PEPSCAN-ELISA) [1]: 0.4; Binding of serum 37 to looped/cyclic peptide (PEPSCAN-ELISA) [1]: 0.5; Binding of serum 62 to looped/cyclic peptide (PEPSCAN-ELISA) [1]: 0.7; Binding of serum London to looped/cyclic peptide (PEPSCAN-ELISA) [1]: 0.2; Binding of serum SARS-green to looped/cyclic peptide (PEPSCAN-ELISA) [1]: 0.3; Binding of serum SARS-yellow to looped/cyclic peptide (PEPSCAN-ELISA) [1]: 0.4
PPNVQIHTIDGSSGV,0.5,0.5,0.5,0.7,,,0.6,,0.5,,0.4,,0.4,0.7,0.6,0.3,0.3,0.4,0.1,0.5,Binding of serum 1a to looped/cyclic peptides of protein X1 of SARS-CoV Urbani [1]: 0.5; Binding of serum 1b to looped/cyclic peptides of protein X1 of SARS-CoV Urbani [1]: 0.4; Binding of serum 2 to looped/cyclic peptides of protein X1 of SARS-CoV Urbani [1]: 0.3; Binding of serum 6 to looped/cyclic peptides of protein X1 of SARS-CoV Urbani [1]: 0.4; Binding of serum 37 to looped/cyclic peptides of protein X1 of SARS-CoV Urbani [1]: 0.6; Binding of serum 62 to looped/cyclic peptides of protein X1 of SARS-CoV Urbani [1]: 0.5; Binding of serum London to looped/cyclic peptides of protein X1 of SARS-CoV Urbani [1]: 0.2; Binding of serum SARS-green to looped/cyclic peptides of protein X1 of SARS-CoV Urbani [1]: 0.4; Binding of serum SARS-yellow to looped/cyclic peptides of protein X1 of SARS-CoV Urbani [1]: 0.3
